# Data: paper PMC4362760, “JAK2^V617F Drives Mcl-1 Expression and Sensitizes Hematologic Cell Lines to Dual Inhibition of JAK2 and Bcl-xL” (PLoS ONE, 2015)
# Key:
# [1] = target: Abl (Homo sapiens, UniProt P00519); assay: TR-FRET Kinome Abl; assay type: binding; details: Abl Invitrogen .025(Subs Conc)
# Source text: (§1) (XLS) Click here for additional data file.
# [2] = target: CDK11; assay: TR-FRET Kinome CDK11; assay type: binding, human; details: CDK11 Abbott .025(Subs Conc)
# Source text: as §1
# [3] = target: DDR1 (Homo sapiens, UniProt Q08345); assay: TR-FRET Kinome DDR1; assay type: binding; details: DDR1 Invitrogen .01(Subs Conc)
# Source text: as §1
# [4] = target: MAP2K3 (Homo sapiens, UniProt P46734); assay: TR-FRET Kinome MAP2K3; assay type: binding; details: MAP2K3 Invitrogen .075(Subs Conc)
# Source text: as §1
# [5] = target: PKCzeta (Homo sapiens, UniProt Q05513); assay: TR-FRET Kinome PKCzeta; assay type: binding; details: PKCzeta Millipore IVGN Tracer .05(Subs Conc)
# Source text: as §1
# [6] = target: Pim2 (Homo sapiens, UniProt Q9P1W9); assay: TR-FRET Kinome Pim2; assay type: binding; details: Pim2 Millipore .025(Subs Conc)
# Source text: as §1
# [7] = target: Plk3 (Homo sapiens, UniProt Q9H4B4); assay: TR-FRET Kinome Plk3; assay type: binding; details: Plk3 Invitrogen .05(Subs Conc)
# Source text: as §1
# [8] = target: cdk2 (Homo sapiens, UniProt P24941); assay: TR-FRET Kinome cdk2; assay type: binding; details: cdk2 Invitrogen .05(Subs Conc)
# Source text: as §1
# [9] = system: Bim binding to Bcl-XL; assay: Bim immunoblot of lysates and Bcl-XL immunoprecipitates; assay type: cell-based
# Description: For immunoprecipitation, lysates were prepared in CHAPS lysis buffer and 2 mg of cell lysate was mixed with at least 8 μg of immunoprecipitating antibody overnight at 4°C. The following day, 30 μl of a Protein A- or Protein G-agarose slurry was added for an additional 2 hr. Immunoprecipitates were washed three times in CHAPS lysis buffer, and heated in 1.5x loading buffer at 95°C for 5 min.
# (§2) Caspase-3 activity was determined at each time point. Data are from duplicate samples and are representative of at least three independent experiments. (D-G) Cells were treated in combination as indicated, and cell viability was determined after 72 hr. Data are means of duplicate determinations, and are representative of at least three independent experiments. […] Drugs were added simultaneously, and cell viability was determined after 72 hr. The data were then analyzed using the drug-drug interaction model of Bliss additivity^16 to define dose combinations that were synergistic (values >15; red), antagonistic (values <-15; blue), or without effect (-15<values<15; gray). (I) Model of JAK2/Bcl-2 family inhibitor synergy. JAK2^V617F constitutively phosphorylates and activates STAT3/5, thus enforcing expression of the transcriptional target, Mcl-1. Mcl-1 collaborates with Bcl-XL to oppose apoptosis and support viability.
# [10] = system: Caspase-3/7; assay: Caspase-GLO 3/7 Assay, Caspase-3/7 activity divided by cell viability, fold of control; assay type: cell-based; details: for caspase-3 activity, single agent: JAKi-I or ABT-263 alone
# [11] = system: HEL cells; assay: Cell viability of HEL cells after siRNA transfection and 72 hr ABT-263; assay type: cell-based
# Description: Transfection of siRNAs was performed using Lipofectamine RNAiMAX according to the manufacturer’s recommendations. […] Caspase-3 activity was determined using the Caspase-GLO 3/7 Assay (Promega) in parallel with the CellTiter-GLO viability assay (Promega). The data are expressed as Caspase-3/7 activity divided by cell viability. […]
# [12] = system: SET-2 cells; assay: alamarBlue cell viability, JAKi-I/ABT-263 combination, 72 hr, SET-2; assay type: cell-based; details: SET-2, 72h, Jaki-1 0 uM
# Description: (§3) Transfection of siRNAs was performed using Lipofectamine RNAiMAX according to the manufacturer’s recommendations. […] Caspase-3 activity was determined using the Caspase-GLO 3/7 Assay (Promega) in parallel with the CellTiter-GLO viability assay (Promega). The data are expressed as Caspase-3/7 activity divided by cell viability.
# as §2
# (§4) Supplementary file pone.0114363.s006.xls: S6 Dataset Cells were treated in combination as indicated, and cell viability was determined using alamarBlue after 72 hr. Data are means of duplicate determinations, and are representative of at least three independent experiments. (XLS) Click here for additional data file.
# [13] = system: MV4;11 cells; assay: alamarBlue cell viability, JAKi-I/ABT-263 combination, 72 hr, MV4;11; assay type: cell-based; details: MV4;11, 72h, Jaki-1 0 uM
# Description: as §3, §2, §4
# [14] = system: multiple xenograft models; details: oral, single agent and in combination with standard of care chemotherapies; cited from earlier work
# Chain of Plk3 (Q9H4B4 whole entry): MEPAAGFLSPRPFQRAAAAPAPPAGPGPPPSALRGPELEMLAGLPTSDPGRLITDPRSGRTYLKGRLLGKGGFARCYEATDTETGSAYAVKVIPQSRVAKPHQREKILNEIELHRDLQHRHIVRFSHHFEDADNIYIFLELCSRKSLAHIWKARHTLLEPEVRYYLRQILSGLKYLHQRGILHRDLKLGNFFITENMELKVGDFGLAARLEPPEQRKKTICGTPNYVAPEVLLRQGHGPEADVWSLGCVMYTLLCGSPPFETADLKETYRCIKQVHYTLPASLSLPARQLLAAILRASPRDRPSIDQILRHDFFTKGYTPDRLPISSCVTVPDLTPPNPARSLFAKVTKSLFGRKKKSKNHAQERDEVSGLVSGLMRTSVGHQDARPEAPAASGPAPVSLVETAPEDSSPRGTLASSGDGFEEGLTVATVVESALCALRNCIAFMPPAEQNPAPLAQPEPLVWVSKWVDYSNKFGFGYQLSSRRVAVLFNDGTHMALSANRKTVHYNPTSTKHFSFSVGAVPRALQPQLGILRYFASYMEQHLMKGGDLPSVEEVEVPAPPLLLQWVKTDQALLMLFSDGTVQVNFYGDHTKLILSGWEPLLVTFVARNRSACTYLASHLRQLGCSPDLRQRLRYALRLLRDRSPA
# Chain of Pim2 (Q9P1W9 whole entry): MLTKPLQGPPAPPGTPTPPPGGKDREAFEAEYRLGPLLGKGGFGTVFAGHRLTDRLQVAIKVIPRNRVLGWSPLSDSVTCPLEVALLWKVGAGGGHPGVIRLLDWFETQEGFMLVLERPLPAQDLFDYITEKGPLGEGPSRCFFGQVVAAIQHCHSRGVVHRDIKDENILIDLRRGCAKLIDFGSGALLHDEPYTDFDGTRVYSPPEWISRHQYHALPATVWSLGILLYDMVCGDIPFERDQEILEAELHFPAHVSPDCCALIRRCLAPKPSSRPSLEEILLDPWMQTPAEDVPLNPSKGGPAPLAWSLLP
# Chain of Abl (P00519 whole entry): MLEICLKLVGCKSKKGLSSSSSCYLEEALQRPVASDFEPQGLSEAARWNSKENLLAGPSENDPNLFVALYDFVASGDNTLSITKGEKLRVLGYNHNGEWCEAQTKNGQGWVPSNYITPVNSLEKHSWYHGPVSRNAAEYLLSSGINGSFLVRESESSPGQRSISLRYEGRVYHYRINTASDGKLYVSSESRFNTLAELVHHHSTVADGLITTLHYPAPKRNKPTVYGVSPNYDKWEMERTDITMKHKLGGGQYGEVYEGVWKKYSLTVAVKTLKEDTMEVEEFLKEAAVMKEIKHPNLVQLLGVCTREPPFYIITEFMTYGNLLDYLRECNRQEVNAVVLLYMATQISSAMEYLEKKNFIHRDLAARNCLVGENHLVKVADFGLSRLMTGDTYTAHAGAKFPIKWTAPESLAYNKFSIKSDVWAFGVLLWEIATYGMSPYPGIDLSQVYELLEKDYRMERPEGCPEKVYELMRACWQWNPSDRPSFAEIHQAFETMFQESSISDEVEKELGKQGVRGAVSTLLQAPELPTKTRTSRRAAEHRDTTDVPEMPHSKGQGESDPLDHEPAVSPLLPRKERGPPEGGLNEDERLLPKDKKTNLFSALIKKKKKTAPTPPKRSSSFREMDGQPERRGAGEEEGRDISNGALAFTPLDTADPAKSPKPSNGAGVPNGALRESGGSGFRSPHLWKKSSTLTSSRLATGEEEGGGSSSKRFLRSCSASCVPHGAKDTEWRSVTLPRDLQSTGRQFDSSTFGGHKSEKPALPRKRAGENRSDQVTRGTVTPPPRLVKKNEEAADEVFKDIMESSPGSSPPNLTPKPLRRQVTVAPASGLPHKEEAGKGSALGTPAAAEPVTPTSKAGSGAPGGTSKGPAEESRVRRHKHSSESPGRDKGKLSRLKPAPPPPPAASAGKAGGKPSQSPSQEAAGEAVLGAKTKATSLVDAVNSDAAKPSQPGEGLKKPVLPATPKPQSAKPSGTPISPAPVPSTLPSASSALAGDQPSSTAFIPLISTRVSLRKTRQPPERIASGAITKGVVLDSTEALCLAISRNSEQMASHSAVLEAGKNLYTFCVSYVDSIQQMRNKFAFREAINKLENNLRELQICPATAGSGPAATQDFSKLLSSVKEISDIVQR
# Chain of DDR1 (Q08345 19-913): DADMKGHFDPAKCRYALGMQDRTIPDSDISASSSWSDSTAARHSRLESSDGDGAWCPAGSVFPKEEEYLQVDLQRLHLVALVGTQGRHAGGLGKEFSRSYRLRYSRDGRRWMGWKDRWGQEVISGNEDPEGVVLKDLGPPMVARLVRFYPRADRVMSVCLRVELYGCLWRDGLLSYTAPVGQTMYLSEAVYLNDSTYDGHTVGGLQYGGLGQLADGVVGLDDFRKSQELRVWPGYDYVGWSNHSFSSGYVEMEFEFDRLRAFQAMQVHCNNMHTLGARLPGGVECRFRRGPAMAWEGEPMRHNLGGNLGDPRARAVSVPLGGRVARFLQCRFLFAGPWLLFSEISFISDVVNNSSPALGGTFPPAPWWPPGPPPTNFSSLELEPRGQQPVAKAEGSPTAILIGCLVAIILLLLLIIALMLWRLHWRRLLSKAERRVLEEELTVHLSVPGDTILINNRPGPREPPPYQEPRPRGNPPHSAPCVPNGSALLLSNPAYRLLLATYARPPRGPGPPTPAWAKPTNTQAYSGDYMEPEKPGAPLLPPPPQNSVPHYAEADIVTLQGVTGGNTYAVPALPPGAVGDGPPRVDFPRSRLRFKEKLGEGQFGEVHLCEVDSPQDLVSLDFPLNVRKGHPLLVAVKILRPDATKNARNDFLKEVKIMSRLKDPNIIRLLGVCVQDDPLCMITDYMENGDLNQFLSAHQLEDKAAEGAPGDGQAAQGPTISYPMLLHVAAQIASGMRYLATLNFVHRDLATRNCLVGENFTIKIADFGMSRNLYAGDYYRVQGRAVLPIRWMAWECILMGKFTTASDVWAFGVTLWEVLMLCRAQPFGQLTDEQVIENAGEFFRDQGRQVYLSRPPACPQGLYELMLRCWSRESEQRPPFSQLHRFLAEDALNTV
# Chain of PKCzeta (Q05513 whole entry): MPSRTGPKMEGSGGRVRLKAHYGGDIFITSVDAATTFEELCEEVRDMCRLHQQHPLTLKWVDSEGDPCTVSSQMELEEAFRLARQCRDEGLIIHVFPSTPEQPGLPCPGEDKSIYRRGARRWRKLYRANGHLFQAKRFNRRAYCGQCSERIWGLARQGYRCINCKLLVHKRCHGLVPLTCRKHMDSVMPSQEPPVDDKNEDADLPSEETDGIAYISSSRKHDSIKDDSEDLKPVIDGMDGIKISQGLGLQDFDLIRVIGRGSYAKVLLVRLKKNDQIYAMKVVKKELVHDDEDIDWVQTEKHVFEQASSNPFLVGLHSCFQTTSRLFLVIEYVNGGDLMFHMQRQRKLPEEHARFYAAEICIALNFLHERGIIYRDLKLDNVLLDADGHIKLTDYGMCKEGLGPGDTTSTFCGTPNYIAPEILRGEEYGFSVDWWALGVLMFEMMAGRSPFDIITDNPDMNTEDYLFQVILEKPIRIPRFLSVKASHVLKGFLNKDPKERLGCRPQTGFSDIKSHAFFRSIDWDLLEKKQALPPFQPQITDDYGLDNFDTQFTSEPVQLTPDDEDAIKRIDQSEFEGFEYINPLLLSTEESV
# Chain of MAP2K3 (P46734 whole entry): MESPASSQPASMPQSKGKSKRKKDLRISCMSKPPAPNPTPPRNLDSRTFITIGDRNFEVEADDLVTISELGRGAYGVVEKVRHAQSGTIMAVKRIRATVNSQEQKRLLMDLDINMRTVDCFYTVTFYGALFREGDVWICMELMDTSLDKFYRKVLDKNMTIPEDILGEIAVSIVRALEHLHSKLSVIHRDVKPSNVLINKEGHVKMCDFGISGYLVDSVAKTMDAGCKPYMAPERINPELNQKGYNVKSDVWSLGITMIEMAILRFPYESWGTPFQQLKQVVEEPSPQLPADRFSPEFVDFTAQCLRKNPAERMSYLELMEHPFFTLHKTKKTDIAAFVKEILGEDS
smiles,measurement,setting,value
"CC(C)(C)c1nc2c3cc[nH]c(=O)c3c3cc(F)ccc3c2[nH]1 [JAKi-I, JAK inhibitor I]",Ki,[1],> 2600 nM
same,Ki,[2],> 3240 nM
same,Ki,[3],> 2590 nM
same,Ki,[4],> 3100 nM
same,Ki,[5],> 5240 nM
same,Ki,[6],2110 nM
same,Ki,[7],> 1550 nM
same,Ki,[8],> 3240 nM
same,abundance of total Bim protein,"[9]; 1 μM JAKi-I, 6 hr, HEL and K562 lysates",not altered
same,Bim in Bcl-XL immunoprecipitates,"[9]; 1 μM JAKi-I, 6 hr, in the presence of the JAK2 V617F mutation",enriched
same,"caspase-3 activity, single agent",[10],neither JAKi-I nor ABT-263 alone induced caspase-3 activity
CC1(C)CCC(c2ccc(Cl)cc2)=C(CN2CCN(c3ccc(C(=O)NS(=O)(=O)c4ccc(N[C@H](CCN5CCOCC5)CSc5ccccc5)c(S(=O)(=O)C(F)(F)F)c4)cc3)CC2)C1 [ABT-263],Cell Viability (% Inhibiton),"[11]; Unt., ABT-263 0.003 uM",0%
same,Cell Viability (% Inhibiton),"[11]; Unt., ABT-263 0.01 uM",0%
same,Cell Viability (% Inhibiton),"[11]; Unt., ABT-263 0.03 uM",3%
same,Cell Viability (% Inhibiton),"[11]; Unt., ABT-263 0.1 uM",37%
same,Cell Viability (% Inhibiton),"[11]; Unt., ABT-263 0.3 uM",94%
same,Cell Viability (% Inhibiton),"[11]; Unt., ABT-263 1 uM",97%
same,Cell Viability (% Inhibiton),"[11]; siMcl1-1, ABT-263 0.003 uM",0%
same,Cell Viability (% Inhibiton),"[11]; siMcl1-1, ABT-263 0.01 uM",0%
same,Cell Viability (% Inhibiton),"[11]; siMcl1-1, ABT-263 0.03 uM",0%
same,Cell Viability (% Inhibiton),"[11]; siMcl1-1, ABT-263 0.1 uM",40%
same,Cell Viability (% Inhibiton),"[11]; siMcl1-1, ABT-263 0.3 uM",97%
same,Cell Viability (% Inhibiton),"[11]; siMcl1-1, ABT-263 1 uM",100%
same,Cell Viability (% Inhibiton),"[11]; siMcl1-2, ABT-263 0.003 uM",0%
same,Cell Viability (% Inhibiton),"[11]; siMcl1-2, ABT-263 0.01 uM",21%
same,Cell Viability (% Inhibiton),"[11]; siMcl1-2, ABT-263 0.03 uM",38%
same,Cell Viability (% Inhibiton),"[11]; siMcl1-2, ABT-263 0.1 uM",79%
same,Cell Viability (% Inhibiton),"[11]; siMcl1-2, ABT-263 0.3 uM",100%
same,Cell Viability (% Inhibiton),"[11]; siMcl1-2, ABT-263 1 uM",100%
same,Cell Viability (% Inhibiton),"[11]; siMcl1-3, ABT-263 0.003 uM",0%
same,Cell Viability (% Inhibiton),"[11]; siMcl1-3, ABT-263 0.01 uM",37%
same,Cell Viability (% Inhibiton),"[11]; siMcl1-3, ABT-263 0.03 uM",65%
same,Cell Viability (% Inhibiton),"[11]; siMcl1-3, ABT-263 0.1 uM",90%
same,Cell Viability (% Inhibiton),"[11]; siMcl1-3, ABT-263 0.3 uM",100%
same,Cell Viability (% Inhibiton),"[11]; siMcl1-3, ABT-263 1 uM",100%
same,Cell Viability (% Inhibiton),"[11]; siMcl1-4, ABT-263 0.003 uM",0%
same,Cell Viability (% Inhibiton),"[11]; siMcl1-4, ABT-263 0.01 uM",58%
same,Cell Viability (% Inhibiton),"[11]; siMcl1-4, ABT-263 0.03 uM",85%
same,Cell Viability (% Inhibiton),"[11]; siMcl1-4, ABT-263 0.1 uM",94%
same,Cell Viability (% Inhibiton),"[11]; siMcl1-4, ABT-263 0.3 uM",100%
same,Cell Viability (% Inhibiton),"[11]; siMcl1-4, ABT-263 1 uM",100%
same,Cell Viability (% Inhibiton),"[11]; siNT-1, ABT-263 0.003 uM",0%
same,Cell Viability (% Inhibiton),"[11]; siNT-1, ABT-263 0.01 uM",0%
same,Cell Viability (% Inhibiton),"[11]; siNT-1, ABT-263 0.03 uM",7%
same,Cell Viability (% Inhibiton),"[11]; siNT-1, ABT-263 0.1 uM",30%
same,Cell Viability (% Inhibiton),"[11]; siNT-1, ABT-263 0.3 uM",93%
same,Cell Viability (% Inhibiton),"[11]; siNT-1, ABT-263 1 uM",98%
same,Bim binding to Bcl-XL,"[9]; 0.15 μM ABT-263, 3 hr, irrespective of JAK2 mutational status",displaced
same,"caspase-3 activity, combination","[10]; JAKi-I 6 hr pretreatment followed by ABT-263, within four hours, cell lines harboring JAK2 V617F",synergistic induction
same,"caspase-3 activity, single agent",[10],neither JAKi-I nor ABT-263 alone induced caspase-3 activity
same,Viability (% Inhibiton),[12]; ABT-263 0.003 uM,0%
same,Viability (% Inhibiton),[12]; ABT-263 0.01 uM,3%
same,Viability (% Inhibiton),[12]; ABT-263 0.03 uM,4%
same,Viability (% Inhibiton),[12]; ABT-263 0.1 uM,28%
same,Viability (% Inhibiton),[12]; ABT-263 0.3 uM,63%
same,Viability (% Inhibiton),[12]; ABT-263 1 uM,95%
same,Viability (% Inhibiton),[13]; ABT-263 0.003 uM,0%
same,Viability (% Inhibiton),[13]; ABT-263 0.01 uM,1%
same,Viability (% Inhibiton),[13]; ABT-263 0.03 uM,0%
same,Viability (% Inhibiton),[13]; ABT-263 0.1 uM,23%
same,Viability (% Inhibiton),[13]; ABT-263 0.3 uM,30%
same,Viability (% Inhibiton),[13]; ABT-263 1 uM,29%
same,activity in xenograft models,[14],pronounced oral activity
